Reference: patent publication US20220299500A1, “NDUFS2 SUBUNIT KNOCKOUT HUMAN CELL LINE” (priority 2019, published 2022)
Entries after “also recorded” stand apart in the source; their conditions may differ.

How the values were obtained:
Type in all cases: cell-based, human
[1] = system: permeabilized mutant HEK293ΔNDUFS2 cells; assay: Oxygen consumption of permeabilized mutant cells, Oroboros O2k respirometry
Protocol: Mitochondrial respiration measurements with Oroboros O2K respirometry. Oxygen consumption rate (OCR) of strains was determined using protocols described elsewhere (Alleman R J, et al. Am J Physiol Heart Circ Physiol 2016, 310(10):H1360-1370; Goswami I, et al. Biophys J 2018, 114(12):2951-2964). Briefly, the parent type HEK293 and the mutant HEK293ΔNDUFS2 grown for eight days in 225 cm^2 flasks for 75-80% confluence were harvested by treatment with trypsin-EDTA, centrifuged at 300×g for 3 min, and resuspended in assay buffer Z (105 mM 2-(N-Morpholino)ethanesulfonic acid potassium salt, 30 mM KCl, 10 mM KH2PO4, 5 mM MgCl2-6H2O, 0.5 mg/mL bovine serum albumin, 20 mM creatine, 1 mM EGTA [pH 7.1] in dH2O). Approximately one million cells in 2 ml volumes were then introduced into the Oroboros O2K respiration chamber, which is equipped with calibrated oxygen measuring polarographic sensors. The oxygen signals were allowed to stabilize before closing the chamber to the outside air while chamber temperature was maintained at 37° C. Subsequently, the OCR was recorded after injection with none (basal), 2 mM of malate plus 10 mM glutamate (G/M), 5 mM of adenosine diphosphate (ADP), and 1.0 μM protonophore Carbonyl cyanide 4-(trifluoromethoxy)phenylhydrazone (FCCP).
Cell growth and metabolism. To measure the cell proliferation of parent HEK293 and mutant HEK293ΔNDUFS2, aliquots of 50,000 cells were introduced into 75 cm^2 flasks each carrying 25 ml growth media and cell numbers were quantified in triplicates after 4 and 6 days of incubation. Extracellular Acidification Rate (ECAR) was determined with an Agilent Seahorse XFe96 analyzer (Ryall J G. Methods Mol Biol 2017, 1556:245-253). Cellular ATP pool and cell-membrane porousness were measured using Mitochondrial ToxGlo Assay (Promega Corporation, Madison, Wis.). Oxygen consumption of saponin-permeabilized cells (Hahn D, et al. Am J Physiol Cell Physiol 2019, 317(4):C665-C673) was measured by Oroboros O2k respirometry (Alleman R J, et al. Am J Physiol Heart Circ Physiol 2016, 310(10):H1360-1370; Goswami I, et al. Biophys J 2018, 114(12):2951-2964).
(§1) Restoring (rescuing) the impaired growth and respiration the mutant. Effectiveness of the potential Complex I therapeutic idebenone in restoring the ATP synthesis defects of the mutant HEK293ΔNDUFS2 was evaluated. In this procedure, mutant cells were cultured in media supplemented with 1 μM of idebenone in 96-well plates at 2,000 cells/well. Fresh media (with or without the therapeutic) were added on days 0, 3 and 5. Cellular ATP pool was assessed on day 6 of incubation by Mitochondrial ToxGlo Assay. Mutant cells were also cultured in 6-well plates at 2000 cells/well in medium supplemented 0.5, 1, 5, or 10 μM of idebenone. Fresh media containing the drug was added on days 3, 6 and 9, and the cell counts in wells of triplicates was determined following 10 days incubation. Efficacy of idebenone in improving respiration of permeabilized mutant cells was measured by O2k respirometry as described above with the following modification: subsequent to glutamate+malate injection, idebenone was injected into chambers at 1 μM final concentration. The control groups received DMSO.

mutant HEK293ΔNDUFS2 [2] = assay: Cell growth of mutant cultures treated for 10 days (cell counts)
Protocol: as §1

mutant HEK293ΔNDUFS2 [3] = assay: ATP synthesis of mutant cells grown with therapeutics, Mitochondrial ToxGlo Assay; conditions: for amount of ATP compared to mutant cells treated with DMSO: day 6, luminescence normalized to DMSO control; for restoration of ATP synthesis defects of the mutant: concentration not given
Protocol: (§2) ATP synthesis and cell-membrane integrity of strains. Potential mitochondrial dysfunction of strains was assessed by using the Mitochondrial ToxGlo Assay (Promega Corporation, Madison, Wis.), according to the procedure described by the manufacturer. This assay is based on the measurements of biomarkers associated with changes in cell membrane integrity and cellular ATP levels. Briefly, the parent and mutant cells grown in flasks were harvested by trypsinization and resuspended in fresh medium. Approximately 10,000 cells/well were added to a 96-well plate and incubated overnight. A working stock of antimycin A, which is a mitochondrial toxin (complex III inhibitor) was prepared at a concentration of 150 μM in a glucose-free DMEM medium (Sigma-Aldrich) supplemented with 10 mM galactose (Sigma-Aldrich). Serial dilutions of the mitochondrial toxin were prepared in a separate 96-well plate (in galactose containing medium). Overnight grown cells were washed with glucose-free galactose containing medium, and fresh (galactose containing medium) was added into wells at 50 μl/well. Fifty μl volumes of the serial dilutions of toxin were transferred from the stock plate to the wells in cell culture plate. The wells carrying the vehicle controls received the medium with no toxin. The plate was incubated at 37° C. for 90 min. Twenty μl volumes of 5× Cytotoxicity Reagent were added to each well, the plate was incubated at 37° C. for further 30 min, and the fluorescence was measured at 475 nmEX/500-550 nmEM, by using a Glomax Discover plate reader (Promega Corporation). The assay plate was equilibrated to room temperature, 100 μl ATP Detection Reagent was added to each well, and luminescence was measured by using the same plate reader.
Restoring (rescuing) the altered/lost phenotypes of the mutant with the use of potential complex I therapeutics. Effectiveness of the potential complex I therapeutics in restoring the metabolic defects of the mutant HEK293ΔNDUFS2 was evaluated. For this purpose, the mutant cells were treated with the therapeutic idebenone or its analog SBT-220 and change in ATP synthesis was examined. In this procedure, the mutant cells were suspended in culture media supplemented with 0, 1, or 10 μM of idebenone, conjugate SBT-220, conjugate SBT-222, or elamipretide, and plated in 96 well plates at 2,000 cells/well. Cells suspended in DMSO served as controls. Fresh media (with or without therapeutics) were added on days 0, 3 and 5. Cellular ATP synthesis was assessed on day 6 of incubation by using the Mitochondrial ToxGlo Assay, as described above. The responses of ATP synthesis in the treatment groups were normalized to that of the control group.
as §1

parent HEK293 [4] = assay: ATP synthesis in presence of respiratory inhibitor, Mitochondrial ToxGlo Assay; conditions: Antimycin A added to reaction media, 90 min
Protocol: as §2

mutant HEK293ΔNDUFS2 [5] = assay: as above; conditions: Antimycin A added to reaction media
Protocol: as §2

parent HEK293 [6] = assay: Cell-membrane porousness in presence of respiratory inhibitor, Mitochondrial ToxGlo Assay; conditions: Antimycin A added to reaction medium
Protocol: as §2

mutant HEK293ΔNDUFS2 [7] = assay: as above
Protocol: as §2

[8] = 1 μM final concentration, vs DMSO

Molecule	Complex I respiration ([1]; 1 μM final concentration injected after glutamate+malate, vs DMSO)	Complex II respiration [1, 8]	OXPHOS capacity [1, 8]	maximal respiration [1, 8]	oxygen consumption all along the ETC ([1]; idebenone treatment vs DMSO)	more cells recovered compared to the DMSO control (mutant HEK293ΔNDUFS2 [2]; 0.5 μM, 10 days)	cell proliferation (mutant HEK293ΔNDUFS2 [2]; 0.5 μM, long-term treatment)	growth of the mutant (mutant HEK293ΔNDUFS2 [2]; 1 μM, 10 days)	growth of the mutant (mutant HEK293ΔNDUFS2 [2]; 5 μM, 10 days)	effect on mutant cells in growth test (mutant HEK293ΔNDUFS2 [2]; 10 μM, 10 days)	amount of ATP compared to mutant cells treated with DMSO (mutant HEK293ΔNDUFS2 [3]; 1 μM)	restoration of ATP synthesis / ATP pool of the mutant (mutant HEK293ΔNDUFS2 [3]; 1 μM, long-term treatment (six days))	improvement of ATP synthesis defects of the mutant (mutant HEK293ΔNDUFS2 [3]; 10 μM)	restoration of ATP synthesis defects of the mutant (mutant HEK293ΔNDUFS2 [3])	ATP synthesis ability (parent HEK293 [4])	decline of ATP synthesis in the mutant compared to the parent (mutant HEK293ΔNDUFS2 [5])	ATP synthesis ability (mutant HEK293ΔNDUFS2 [5]; 90 min)	membrane porousness (parent HEK293 [6])	membrane porousness (mutant HEK293ΔNDUFS2 [7]; Antimycin A added to reaction medium)	cell membrane porousness of the mutant relative to the parent (mutant HEK293ΔNDUFS2 [7]; as a result of antimycin A treatment)
COC1=C(OC)C(=O)C(CCCCCCCCCCO)=C(C)C1=O [idebenone]	improved significantly	improved significantly	improved significantly	improved significantly	improved oxygen consumption all along the ETC	32.1%	enhanced cell proliferation	did not improve growth	did not improve growth	caused cell death	2.4 folds	restored the ATP synthesis of the mutant to some extent; also recorded: significantly greater amount of ATP; also recorded: improved ATP pool	failed to improve	partially restored						
Antimycin A															declined drastically	up to 2.2 folds	declined drastically	more porous	more porous	up to 4.5 folds
elamipretide											2.1 folds			partially restored						
